Among the data in patent US9682983B2, “BMP inhibitors and methods of use thereof” (THE BRIGHAM AND WOMEN'S HOSPITAL, INC., priority 2013, dated 2017) are IC50 values, retold here.

human ALK2, sequence (Q04771 21-509): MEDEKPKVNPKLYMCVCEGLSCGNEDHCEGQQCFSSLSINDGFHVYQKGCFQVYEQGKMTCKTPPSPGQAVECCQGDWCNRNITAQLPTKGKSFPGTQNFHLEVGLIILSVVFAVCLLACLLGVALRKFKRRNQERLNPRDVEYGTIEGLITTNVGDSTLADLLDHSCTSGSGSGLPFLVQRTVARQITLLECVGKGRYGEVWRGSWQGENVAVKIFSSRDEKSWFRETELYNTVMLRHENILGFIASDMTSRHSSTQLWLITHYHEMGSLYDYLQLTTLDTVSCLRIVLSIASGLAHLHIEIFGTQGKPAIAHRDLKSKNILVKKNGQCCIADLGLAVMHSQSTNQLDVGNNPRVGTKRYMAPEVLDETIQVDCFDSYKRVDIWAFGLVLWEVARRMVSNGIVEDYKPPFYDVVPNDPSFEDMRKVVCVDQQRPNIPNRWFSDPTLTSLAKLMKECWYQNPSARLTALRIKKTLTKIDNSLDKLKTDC

This experiment concerns the target human ALK2 (Homo sapiens (Human), UniProt Q04771). The experiment is described as follows: LANCE Ultra ULight enzymatic assay (FOP Enzymatic Assay), ALK2. In kind it is biochemical. The settings on record: read-out: ALK2 IC50 (nM) at 10 μM ATP; 10 μM ATP.
In the case of `c1ccc2c(-c3cnn4cc(-c5ccc(N6CCNCC6)cn5)cnc34)ccnc2c1` [Compound 3], the IC50 is 16 nM.

`C(#Cc1cnc2c(-c3ccnc4ccccc34)cnn2c1)CN1CCNCC1` [Compound 4, 4-(6-(3-(piperazin-1-yl)prop-1-ynyl)pyrazolo[1,5-a]pyrimidin-3-yl)quinoline]: the IC50 stood at 68 nM.

`c1ccc2c(-c3cnn4cc(-c5cnc(N6CCNCC6)nc5)cnc34)ccnc2c1` [Compound 5, 4-(6-(2-(piperazin-1-yl)pyrimidin-5-yl)pyrazolo[1,5-a]pyrimidin-3-yl)quinoline]: the IC50 was 103 nM.

With `c1ccc2c(-c3cnn4cc(-c5ccc(N6C[C@@H]7C[C@H]6CN7)cc5)cnc34)ccnc2c1` [Compound 6, 4-(6-(4-((1S,4S)-2,5-diazabicyclo[2.2.1]heptan-2-yl)phenyl)pyrazolo[1,5-a]pyrimidin-3-yl)quinoline], the IC50 was found to be 12 nM.

As to `c1ccc2c(-c3cnn4cc(-c5ncc(N6CCNCC6)s5)cnc34)ccnc2c1` [Compound 7, 5-(piperazin-1-yl)-2-(3-(quinolin-4-yl)pyrazolo[1,5-a]pyrimidin-6-yl)thiazole], the half-inhibitory concentration (IC50) was determined as 19 nM.

For `Clc1cc(-c2cnn3cc(-c4ccc(N5CCNCC5)cc4)cnc23)c2ccccc2n1` [Compound 8, 2-chloro-4-(6-(4-(piperazin-1-yl)phenyl)pyrazolo[1,5-a]pyrimidin-3-yl)quinoline], the IC50 was found to be 24 nM.

On to `Oc1cc(-c2cnn3cc(-c4ccc(N5CCNCC5)cc4)cnc23)c2ccccc2n1` [Compound 9, 4-(6-(4-(piperazin-1-yl)phenyl)pyrazolo[1,5-a]pyrimidin-3-yl)quinolin-2-ol], for which the IC50 came out at 792 nM.

Consider `Cc1cc(-c2cnn3cc(-c4ccc(N5[C@H](C)CNC[C@@H]5C)cc4)cnc23)c2ccccc2n1` [Compound 11, 4-(6-(4-((2R,6S)-2,6-dimethylpiperazin-1-yl)phenyl)pyrazolo[1,5-a]pyrimidin-3-yl)-2-methylquinoline], for which the IC50 turned out to be 7.7 nM.

Regarding `OCCNCc1ccc2c(-c3cnn4cc(-c5ccc(N6CCNCC6)cc5)cnc34)ccnc2c1` [Compound 14, 2-(((4-(6-(4-(piperazin-1-yl)phenyl)pyrazolo[1,5-a]pyrimidin-3-yl)quinolin-7-yl)methyl)amino)ethanol], the IC50 is 517 nM.

On to `NC(=O)c1ccc2c(-c3cnn4cc(-c5ccc(N6CCNCC6)cc5)cnc34)ccnc2c1` [Compound 15, 4-(6-(4-(piperazin-1-yl)phenyl)pyrazolo[1,5-a]pyrimidin-3-yl)quinoline-7-carboxamide], for which the IC50 came out at 127 nM.

For the compound `OCc1ccc2c(-c3cnn4cc(-c5ccc(N6CCNCC6)cc5)cnc34)ccnc2c1` [Compound 16, (4-(6-(4-(piperazin-1-yl)phenyl)pyrazolo[1,5-a]pyrimidin-3-yl)quinolin-7-yl)methanol], the IC50 was determined as 102 nM.

Take `CNCc1ccc2c(-c3cnn4cc(-c5ccc(N6CCNCC6)cc5)cnc34)ccnc2c1` [Compound 18, N-methyl-1-(4-(6-(4-(piperazin-1-yl)phenyl)pyrazolo[1,5-a]pyrimidin-3-yl)quinolin-7-yl)methanamine]: the concentration for half-maximal inhibition (IC50) is 906 nM.

For `CN(C)Cc1ccc2c(-c3cnn4cc(-c5ccc(N6CCNCC6)cc5)cnc34)ccnc2c1` [Compound 19, N,N-dimethyl-1-(4-(6-(4-(piperazin-1-yl)phenyl)pyrazolo[1,5-a]pyrimidin-3-yl)quinolin-7-yl)methanamine], the IC50 amounted to 407 nM.

On to `NCc1ccc2c(-c3cnn4cc(-c5ccc(N6CCNCC6)cc5)cnc34)ccnc2c1` [Compound 20, (4-(6-(4-(piperazin-1-yl)phenyl)pyrazolo[1,5-a]pyrimidin-3-yl)quinolin-7-yl)methanamine], for which the IC50 worked out at 706 nM.

Regarding `c1cc(-c2cnn3cc(-c4ccc(N5CCNCC5)cc4)cnc23)c2ccc(CN3CCCC3)cc2n1` [Compound 21, 4-(6-(4-(piperazin-1-yl)phenyl)pyrazolo[1,5-a]pyrimidin-3-yl)-7-(pyrrolidin-1-ylmethyl)quinoline], the IC50 was 2140 nM.

For the compound `O=C(O)c1cccc2c(-c3cnn4cc(-c5ccc(N6CCNCC6)cc5)cnc34)ccnc12` [Compound 22, 4-(6-(4-(piperazin-1-yl)phenyl)pyrazolo[1,5-a]pyrimidin-3-yl)quinoline-8-carboxylic acid], the IC50 stood at 88 nM.

In the case of `NC(=O)c1cccc2c(-c3cnn4cc(-c5ccc(N6CCNCC6)cc5)cnc34)ccnc12` [Compound 23, 4-(6-(4-(piperazin-1-yl)phenyl)pyrazolo[1,5-a]pyrimidin-3-yl)quinoline-8-carboxamide], the IC50 is 26 nM.

For `OCc1cccc2c(-c3cnn4cc(-c5ccc(N6CCNCC6)cc5)cnc34)ccnc12` [Compound 24, (4-(6-(4-(piperazin-1-yl)phenyl)pyrazolo[1,5-a]pyrimidin-3-yl)quinolin-8-yl)methanol], the IC50 was found to be 62 nM.

As for `NCc1cccc2c(-c3cnn4cc(-c5ccc(N6CCNCC6)cc5)cnc34)ccnc12` [Compound 25, (4-(6-(4-(piperazin-1-yl)phenyl)pyrazolo[1,5-a]pyrimidin-3-yl)quinolin-8-yl)methanamine], the IC50 worked out at 482 nM.

For the compound `CC(=O)Nc1ccc2c(-c3cnn4cc(-c5ccc(N6CCNCC6)cc5)cnc34)ccnc2c1` [Compound 26, N-(4-(6-(4-(piperazin-1-yl)phenyl)pyrazolo[1,5-a]pyrimidin-3-yl)quinolin-7-yl)acetamide], the IC50 was 105 nM.

Take `Nc1ccc2c(-c3cnn4cc(-c5ccc(N6CCNCC6)cc5)cnc34)ccnc2c1` [Compound 27, 4-(6-(4-(piperazin-1-yl)phenyl)pyrazolo[1,5-a]pyrimidin-3-yl)quinolin-7-amine]: the IC50 was found to be 44 nM.

For `Oc1ccc2c(-c3cnn4cc(-c5ccc(N6CCNCC6)cc5)cnc34)ccnc2c1` [Compound 28, 4-(6-(4-(piperazin-1-yl)phenyl)pyrazolo[1,5-a]pyrimidin-3-yl)quinolin-7-ol], the IC50 worked out at 31 nM.

On to `c1cc(-c2cnn3cc(-c4ccc(OCCN5CCCCC5)nc4)cnc23)c2cccnc2c1` [Compound 29, 5-(6-(6-(2-(piperidin-1-yl)ethoxy)pyridin-3-yl)pyrazolo[1,5-a]pyrimidin-3-yl)quinoline], for which the IC50 is 127 nM.

Regarding `c1cc(-c2cnn3cc(-c4ccc(N5CCNCC5)nc4)cnc23)c2cccnc2c1` [Compound 30, 5-(6-(6-(piperazin-1-yl)pyridin-3-yl)pyrazolo[1,5-a]pyrimidin-3-yl)quinoline], the IC50 was 84 nM.

In the case of `c1cc(-c2cnn3cc(-c4ccc(OCCN5CCCCC5)cc4)cnc23)c2cccnc2c1` [Compound 31, 5-(6-(4-(2-(piperidin-1-yl)ethoxy)phenyl)pyrazolo[1,5-a]pyrimidin-3-yl)quinoline], the IC50 amounted to 38 nM.

Regarding `CC(C)(CN1CCCCC1)Oc1ccc(-c2cnc3c(-c4cccc5ncccc45)cnn3c2)cc1` [Compound 32, 5-(6-(4-((2-methyl-1-(piperidin-1-yl)propan-2-yl)oxy)phenyl)pyrazolo[1,5-a]pyrimidin-3-yl)quinoline], the IC50 worked out at 106 nM.

For the compound `C[C@@H]1CNC[C@H](C)N1c1ccc(-c2cnc3c(-c4ccnc5ccccc45)cnn3c2)cn1` [Compound 33, 4-(6-(6-((2R,6S)-2,6-dimethylpiperazin-1-yl)pyridin-3-yl)pyrazolo[1,5-a]pyrimidin-3-yl)quinoline], the IC50 was determined as 22 nM.

As for `C[C@@H]1CNC[C@H](C)N1c1ccc(-c2cnc3c(-c4cccc5ncccc45)cnn3c2)cn1` [Compound 34], the IC50 was 56 nM.

Take `Clc1cc(-c2cnc3c(-c4ccnc5ccccc45)cnn3c2)ccc1N1CCNCC1` [Compound 35, 4-(6-(3-chloro-4-(piperazin-1-yl)phenyl)pyrazolo[1,5-a]pyrimidin-3-yl)quinoline]: the IC50 came to 30 nM.

Consider `Clc1cc(-c2cnc3c(-c4cccc5ncccc45)cnn3c2)ccc1N1CCNCC1` [Compound 36, 5-(6-(3-chloro-4-(piperazin-1-yl)phenyl)pyrazolo[1,5-a]pyrimidin-3-yl)quinoline], for which the IC50 was 46 nM.

Take `N#Cc1cc(-c2cnc3c(-c4ccnc5ccccc45)cnn3c2)ccc1N1CCNCC1` [Compound 37, 2-(piperazin-1-yl)-5-(3-(quinolin-4-yl)pyrazolo[1,5-a]pyrimidin-6-yl)benzonitrile]: the IC50 worked out at 24 nM.

Turning to `N#Cc1cc(-c2cnc3c(-c4cccc5ncccc45)cnn3c2)ccc1N1CCNCC1` [Compound 38], the IC50 stood at 47 nM.

Take `Fc1cc(-c2cnc3c(-c4ccnc5ccccc45)cnn3c2)ccc1N1CCNCC1` [Compound 39]: the 50% inhibitory concentration (IC50) stood at 15 nM.

Regarding `Fc1cc(-c2cnc3c(-c4cccc5ncccc45)cnn3c2)ccc1N1CCNCC1` [Compound 40], the IC50 worked out at 32 nM.

With `c1ccc2c(-c3cnn4cc(-c5ccc(OCCN6CCNCC6)nc5)cnc34)ccnc2c1` [Compound 41, 4-(6-(6-(2-(piperazin-1-yl)ethoxy)pyridin-3-yl)pyrazolo[1,5-a]pyrimidin-3-yl)quinoline], the IC50 worked out at 22 nM.

Turning to `c1cc(-c2cnn3cc(-c4ccc(OCCN5CCNCC5)nc4)cnc23)c2cccnc2c1` [Compound 42, 5-(6-(6-(2-(piperazin-1-yl)ethoxy)pyridin-3-yl)pyrazolo[1,5-a]pyrimidin-3-yl)quinoline], the half-maximal inhibitory concentration (IC50) was found to be 14 nM.

Regarding `CN1CCN(CCOc2ccc(-c3cnc4c(-c5ccnc6ccccc56)cnn4c3)cn2)CC1` [Compound 43, 4-(6-(6-(2-(4-methylpiperazin-1-yl)ethoxy)pyridin-3-yl)pyrazolo[1,5-a]pyrimidin-3-yl)quinoline], the IC50 was determined as 122 nM.

Turning to `CN1CCN(CCOc2ccc(-c3cnc4c(-c5cccc6ncccc56)cnn4c3)cn2)CC1` [Compound 44, 5-(6-(6-(2-(4-methylpiperazin-1-yl)ethoxy)pyridin-3-yl)pyrazolo[1,5-a]pyrimidin-3-yl)quinoline], the IC50 is 17 nM.

In the case of `Clc1cc(-c2cnc3c(-c4ccnc5ccccc45)cnn3c2)ccc1OCCN1CCCCC1` [Compound 45, 4-(6-(3-chloro-4-(2-(piperidin-1-yl)ethoxy)phenyl)pyrazolo[1,5-a]pyrimidin-3-yl)quinoline], the IC50 turned out to be 56 nM.

As to `Clc1cc(-c2cnc3c(-c4cccc5ncccc45)cnn3c2)ccc1OCCN1CCCCC1` [Compound 46], the concentration for half-maximal inhibition (IC50) is 16 nM.
